Source: ChEMBL document CHEMBL1201862, “PubChem BioAssay data set” (2004)
Calls of active or inactive are those of the source.

Tests used:
[1] = insulin promoter down-regulators in MIN6 cells, imaging, high-content screening, mouse beta cells (AID 1628); assay type: functional
[2] = cytotoxicity in MIN6 insulinoma cells, dose response, cytotoxicity control, cell-based, mouse insulinoma (AID 2122); assay type: functional;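 further: confirmatory high-throughput counterscreen run to flag cytotoxic compounds; mouse MIN-6 beta cells carrying an insulin promoter eGFP reporter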
Protein Wnt-3a = Protein Wnt-3a (Mus musculus, UniProt P27467); experiment: Wnt3a-driven reporter signaling inhibition, dose response, selectivity assay for Gli-SUFU antagonist project, Wnt-LIGHT cells, luminescence (AID 651570); assay type: functional; settings: read-out: IC50_Mean;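 further: Wnt-LIGHT reporter cells stimulated with conditioned medium from Wnt3a-producing cells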
Chain of Protein Wnt-3a (P27467 whole entry): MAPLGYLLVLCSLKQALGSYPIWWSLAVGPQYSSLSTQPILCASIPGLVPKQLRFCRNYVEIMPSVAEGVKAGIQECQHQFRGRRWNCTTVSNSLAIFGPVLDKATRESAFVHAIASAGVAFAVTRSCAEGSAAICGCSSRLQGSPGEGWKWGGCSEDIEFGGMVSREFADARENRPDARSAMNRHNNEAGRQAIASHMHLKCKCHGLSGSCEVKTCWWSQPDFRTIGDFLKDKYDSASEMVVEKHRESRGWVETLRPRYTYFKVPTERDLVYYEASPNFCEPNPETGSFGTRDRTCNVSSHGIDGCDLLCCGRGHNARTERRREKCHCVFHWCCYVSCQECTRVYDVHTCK

[3] = Luminescence Cell-Based Dose Retest to Confirm Inhibitors of Cancer Stem Cells. [Related pubchem assays (depositor defined):AID2717, AID2721]; assay type: functional; settings: Homo sapiens
[4] = Counterscreen for AddAB inhibitors: absorbance-based bacterial cell-based high throughput dose response assay for inhibitors of bacterial viability. [Related pubchem assays (depositor defined):AID435030, AID449728, AID449731, AID488942, AID488955, AID488956]; assay type: functional
Exodeoxyribonuclease V = Exodeoxyribonuclease V (Escherichia coli (strain K12), UniProt P04993+P07648+P08394); experiment: E. coli RecBCD inhibitors, dose response, counter-screen for AddAB inhibitor project, absorbance, V66 E. coli, mutant T4 phage (AID 492957); assay type: functional, cell-based, Escherichia coli str. K-12 substr. MG1655
Chain of Exodeoxyribonuclease V (P04993 whole entry): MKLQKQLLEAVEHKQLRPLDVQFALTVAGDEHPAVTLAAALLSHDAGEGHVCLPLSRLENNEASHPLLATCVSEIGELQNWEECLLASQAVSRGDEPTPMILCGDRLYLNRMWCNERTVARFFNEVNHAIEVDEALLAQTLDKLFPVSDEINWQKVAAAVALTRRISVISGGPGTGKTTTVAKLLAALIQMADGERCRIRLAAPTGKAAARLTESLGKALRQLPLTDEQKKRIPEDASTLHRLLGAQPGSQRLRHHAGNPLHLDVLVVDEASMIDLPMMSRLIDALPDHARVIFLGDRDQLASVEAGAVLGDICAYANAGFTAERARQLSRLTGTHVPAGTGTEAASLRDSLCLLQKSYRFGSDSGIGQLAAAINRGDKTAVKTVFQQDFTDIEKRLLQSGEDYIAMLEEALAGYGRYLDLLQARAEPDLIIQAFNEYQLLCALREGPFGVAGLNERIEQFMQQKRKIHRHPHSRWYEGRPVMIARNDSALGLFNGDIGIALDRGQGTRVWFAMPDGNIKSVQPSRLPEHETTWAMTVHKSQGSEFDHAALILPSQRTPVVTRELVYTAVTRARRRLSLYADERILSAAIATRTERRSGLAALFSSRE
Chain of Exodeoxyribonuclease V (P07648 whole entry): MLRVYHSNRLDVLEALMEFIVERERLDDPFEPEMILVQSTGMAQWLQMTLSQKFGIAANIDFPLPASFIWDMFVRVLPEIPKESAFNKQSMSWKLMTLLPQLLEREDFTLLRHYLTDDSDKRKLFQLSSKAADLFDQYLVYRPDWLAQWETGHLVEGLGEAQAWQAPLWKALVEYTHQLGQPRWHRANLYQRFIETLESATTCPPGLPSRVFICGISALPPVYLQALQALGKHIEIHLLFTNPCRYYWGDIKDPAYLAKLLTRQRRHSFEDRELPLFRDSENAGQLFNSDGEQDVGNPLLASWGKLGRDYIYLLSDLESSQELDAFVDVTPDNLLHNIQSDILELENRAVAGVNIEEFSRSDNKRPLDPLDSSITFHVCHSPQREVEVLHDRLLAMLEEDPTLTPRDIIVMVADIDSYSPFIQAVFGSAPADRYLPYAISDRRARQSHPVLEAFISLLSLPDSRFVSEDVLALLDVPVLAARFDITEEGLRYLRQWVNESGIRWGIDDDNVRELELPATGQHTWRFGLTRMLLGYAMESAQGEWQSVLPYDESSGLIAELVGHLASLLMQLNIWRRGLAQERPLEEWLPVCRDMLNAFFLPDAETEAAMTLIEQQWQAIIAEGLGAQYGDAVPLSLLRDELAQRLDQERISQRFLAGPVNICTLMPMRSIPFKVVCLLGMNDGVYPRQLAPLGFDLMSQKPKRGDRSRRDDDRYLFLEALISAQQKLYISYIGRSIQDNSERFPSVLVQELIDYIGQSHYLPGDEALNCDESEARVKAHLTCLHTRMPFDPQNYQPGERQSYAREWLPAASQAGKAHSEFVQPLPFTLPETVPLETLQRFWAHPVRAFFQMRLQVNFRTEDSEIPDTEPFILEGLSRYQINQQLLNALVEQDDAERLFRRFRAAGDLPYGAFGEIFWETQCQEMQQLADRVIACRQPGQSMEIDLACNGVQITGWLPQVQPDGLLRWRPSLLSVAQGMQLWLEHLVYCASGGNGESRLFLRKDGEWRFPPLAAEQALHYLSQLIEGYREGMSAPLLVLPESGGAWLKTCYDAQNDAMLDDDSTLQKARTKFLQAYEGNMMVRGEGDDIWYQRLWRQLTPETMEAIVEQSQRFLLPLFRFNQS
Chain of Exodeoxyribonuclease V (P08394 whole entry): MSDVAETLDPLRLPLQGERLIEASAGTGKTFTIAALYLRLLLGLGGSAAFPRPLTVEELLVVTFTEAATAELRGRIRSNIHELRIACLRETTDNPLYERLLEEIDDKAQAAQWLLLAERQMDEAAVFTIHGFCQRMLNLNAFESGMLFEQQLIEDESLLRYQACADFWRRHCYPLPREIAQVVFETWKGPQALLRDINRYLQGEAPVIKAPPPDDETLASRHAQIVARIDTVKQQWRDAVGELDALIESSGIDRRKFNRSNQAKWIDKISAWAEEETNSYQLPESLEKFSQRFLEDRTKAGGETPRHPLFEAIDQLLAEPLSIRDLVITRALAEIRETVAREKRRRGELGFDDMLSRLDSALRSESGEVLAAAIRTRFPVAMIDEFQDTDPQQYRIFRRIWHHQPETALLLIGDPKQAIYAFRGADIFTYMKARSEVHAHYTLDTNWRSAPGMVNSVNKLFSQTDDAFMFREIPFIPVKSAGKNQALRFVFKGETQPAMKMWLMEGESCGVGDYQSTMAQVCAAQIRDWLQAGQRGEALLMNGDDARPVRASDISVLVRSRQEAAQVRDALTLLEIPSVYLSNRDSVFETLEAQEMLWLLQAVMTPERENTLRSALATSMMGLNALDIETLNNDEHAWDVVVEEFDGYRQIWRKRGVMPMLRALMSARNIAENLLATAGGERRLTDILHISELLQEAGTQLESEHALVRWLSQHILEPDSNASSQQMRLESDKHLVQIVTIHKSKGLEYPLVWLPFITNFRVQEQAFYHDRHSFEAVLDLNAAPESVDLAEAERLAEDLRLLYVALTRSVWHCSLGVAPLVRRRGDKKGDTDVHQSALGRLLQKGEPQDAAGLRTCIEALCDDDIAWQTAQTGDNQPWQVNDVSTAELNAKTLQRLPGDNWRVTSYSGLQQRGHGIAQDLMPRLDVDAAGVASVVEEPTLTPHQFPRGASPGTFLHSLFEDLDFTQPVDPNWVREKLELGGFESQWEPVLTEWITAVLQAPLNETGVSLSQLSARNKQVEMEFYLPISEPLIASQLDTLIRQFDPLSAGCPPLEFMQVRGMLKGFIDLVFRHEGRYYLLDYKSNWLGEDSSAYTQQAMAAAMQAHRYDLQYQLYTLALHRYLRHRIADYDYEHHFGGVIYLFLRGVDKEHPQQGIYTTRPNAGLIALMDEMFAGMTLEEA

[5] = microbe, parasite or virus in culture; assay type: functional; settings: Mycobacterium tuberculosis
[6] = molecular target: Lysine-specific demethylase 4C (Homo sapiens, UniProt Q9H3R0); experiment: GASC-1 (JMJD2C) histone demethylase inhibitors, dose response, biochemical, DELFIA europium, cherry-picked samples (AID 488835); assay type: functional
[7] = molecular target: G-protein coupled receptor 55 (Homo sapiens, UniProt Q9Y2T6); experiment: GPR55 antagonists, SAR follow-up, counter-screen for GPR35 antagonist project, imaging, image-based (AID 2397); assay type: functional
Chain of G-protein coupled receptor 55 (Q9Y2T6 whole entry): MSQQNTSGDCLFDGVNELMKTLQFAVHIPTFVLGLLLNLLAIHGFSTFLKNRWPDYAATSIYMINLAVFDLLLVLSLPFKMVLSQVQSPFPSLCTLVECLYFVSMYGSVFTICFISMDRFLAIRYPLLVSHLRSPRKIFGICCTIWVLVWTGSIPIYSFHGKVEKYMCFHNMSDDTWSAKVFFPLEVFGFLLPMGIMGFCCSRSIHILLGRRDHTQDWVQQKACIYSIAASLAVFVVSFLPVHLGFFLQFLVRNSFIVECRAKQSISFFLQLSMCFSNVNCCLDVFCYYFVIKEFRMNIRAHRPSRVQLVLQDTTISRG

[8] = molecular target: Voltage-dependent T-type calcium channel subunit alpha-1H (Homo sapiens, UniProt O95180); experiment: Cav3.2 T-type channel blockers, cell-based, SynthLib3 library, HEK293 Cav3.2, fluorescence (AID 493041); assay type: functional
cells [9] = assay type: functional, cell-based
[10] = molecular target: T1, Trace amine-associated receptor 1 (Homo sapiens, UniProt Q96RJ0); experiment: Counterscreen for agonists of the human trace amine associated receptor 1 (hTAAR1): Fluorescence-based cell-based high throughput dose response assay to identify hTAAR1 agonist that also desensitize TAAR1 receptor response.; assay type: functional
T1 sequence (Q96RJ0 whole entry): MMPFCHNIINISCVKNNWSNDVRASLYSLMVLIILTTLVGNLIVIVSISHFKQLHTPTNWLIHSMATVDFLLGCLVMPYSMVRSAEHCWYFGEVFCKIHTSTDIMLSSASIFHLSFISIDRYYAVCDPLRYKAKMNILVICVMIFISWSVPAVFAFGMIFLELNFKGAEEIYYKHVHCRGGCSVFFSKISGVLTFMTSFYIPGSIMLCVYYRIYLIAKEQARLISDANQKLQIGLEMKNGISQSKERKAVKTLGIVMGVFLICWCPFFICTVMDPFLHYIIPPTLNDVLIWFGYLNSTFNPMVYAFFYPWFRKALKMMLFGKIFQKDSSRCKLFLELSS

[11] = HEp-2 cell cytotoxicity, dose response, cytotoxicity control for RSV inhibitor project, HTS (AID 2410); assay type: functional; settings: human respiratory syncytial virus
[12] = molecular target: T2, Histone-lysine N-methyltransferase NSD2 (Homo sapiens, UniProt O96028); assay type: biochemical
T2 sequence (O96028 whole entry): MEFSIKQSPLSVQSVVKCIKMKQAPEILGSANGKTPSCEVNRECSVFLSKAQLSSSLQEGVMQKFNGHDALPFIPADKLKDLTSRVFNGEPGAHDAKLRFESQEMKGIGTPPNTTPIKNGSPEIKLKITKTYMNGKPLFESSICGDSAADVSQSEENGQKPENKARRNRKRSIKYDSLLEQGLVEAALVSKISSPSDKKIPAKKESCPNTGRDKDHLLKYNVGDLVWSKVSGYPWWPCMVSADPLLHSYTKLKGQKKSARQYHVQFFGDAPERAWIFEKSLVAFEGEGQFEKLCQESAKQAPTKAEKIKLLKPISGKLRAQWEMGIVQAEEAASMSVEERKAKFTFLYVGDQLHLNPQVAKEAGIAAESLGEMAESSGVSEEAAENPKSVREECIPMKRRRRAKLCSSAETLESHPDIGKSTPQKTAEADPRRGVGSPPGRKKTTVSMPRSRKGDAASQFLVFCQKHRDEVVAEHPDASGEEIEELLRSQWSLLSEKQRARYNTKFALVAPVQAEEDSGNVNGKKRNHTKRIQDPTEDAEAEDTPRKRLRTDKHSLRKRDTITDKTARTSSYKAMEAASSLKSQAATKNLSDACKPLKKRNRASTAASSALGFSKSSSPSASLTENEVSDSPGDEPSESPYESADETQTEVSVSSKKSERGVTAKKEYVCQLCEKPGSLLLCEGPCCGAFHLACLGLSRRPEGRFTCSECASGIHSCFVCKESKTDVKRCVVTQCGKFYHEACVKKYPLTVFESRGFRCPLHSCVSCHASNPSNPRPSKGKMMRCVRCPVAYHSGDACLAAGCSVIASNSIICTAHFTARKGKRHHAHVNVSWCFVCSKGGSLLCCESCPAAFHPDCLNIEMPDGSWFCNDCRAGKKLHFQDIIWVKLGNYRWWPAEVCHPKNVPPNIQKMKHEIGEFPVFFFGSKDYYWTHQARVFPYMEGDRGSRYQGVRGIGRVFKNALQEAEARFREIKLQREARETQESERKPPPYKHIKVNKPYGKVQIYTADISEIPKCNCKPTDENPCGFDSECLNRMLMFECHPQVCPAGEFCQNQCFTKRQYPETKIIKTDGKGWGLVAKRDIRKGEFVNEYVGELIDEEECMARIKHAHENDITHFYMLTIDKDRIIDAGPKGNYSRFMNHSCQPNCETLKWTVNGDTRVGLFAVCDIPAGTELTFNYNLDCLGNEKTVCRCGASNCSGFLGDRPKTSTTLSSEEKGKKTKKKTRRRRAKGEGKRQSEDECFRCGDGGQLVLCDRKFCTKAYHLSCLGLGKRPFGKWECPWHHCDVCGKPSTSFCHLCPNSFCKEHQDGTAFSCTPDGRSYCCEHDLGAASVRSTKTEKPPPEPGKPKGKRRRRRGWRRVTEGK

[13] = molecular target: T1, Trace amine-associated receptor 1; experiment: Fluorescence-based cell-based high throughput dose response assay to identify agonists of the human trace amine associated receptor 1 (TAAR1).; assay type: functional
Vero = Vero cell cytotoxicity, cytotoxicity control for flavivirus capping enzyme inhibitors (AID 588742); assay type: functional; settings: Chlorocebus sabaeus
Caspase-6 = Caspase-6 (Homo sapiens, UniProt P55212); experiment: human caspase-6 inhibitors, dose response, biochemical, VEID-R110 fluorescence, cherry-pick (AID 720632)
Chain of Caspase-6 (P55212 24-179 limits assumed): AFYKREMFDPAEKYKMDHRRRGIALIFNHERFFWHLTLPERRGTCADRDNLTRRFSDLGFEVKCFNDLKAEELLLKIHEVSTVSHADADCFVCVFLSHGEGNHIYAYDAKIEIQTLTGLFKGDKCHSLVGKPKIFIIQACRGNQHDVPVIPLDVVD
Chain of Caspase-6 (P55212 194-293 limits assumed): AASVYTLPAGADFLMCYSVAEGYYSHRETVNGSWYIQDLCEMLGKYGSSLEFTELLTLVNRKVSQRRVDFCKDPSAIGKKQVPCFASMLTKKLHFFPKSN

[14] = molecular target: T3, Alkaline phosphatase, tissue-nonspecific isozyme (Homo sapiens, UniProt P05186); experiment: TNAP enzyme inhibition by screening hits, dose response, selectivity assay for mouse IAP inhibitor project, biochemical, human TNAP, uHTS hits (AID 488906); assay type: functional
T3 sequence (P05186 whole entry): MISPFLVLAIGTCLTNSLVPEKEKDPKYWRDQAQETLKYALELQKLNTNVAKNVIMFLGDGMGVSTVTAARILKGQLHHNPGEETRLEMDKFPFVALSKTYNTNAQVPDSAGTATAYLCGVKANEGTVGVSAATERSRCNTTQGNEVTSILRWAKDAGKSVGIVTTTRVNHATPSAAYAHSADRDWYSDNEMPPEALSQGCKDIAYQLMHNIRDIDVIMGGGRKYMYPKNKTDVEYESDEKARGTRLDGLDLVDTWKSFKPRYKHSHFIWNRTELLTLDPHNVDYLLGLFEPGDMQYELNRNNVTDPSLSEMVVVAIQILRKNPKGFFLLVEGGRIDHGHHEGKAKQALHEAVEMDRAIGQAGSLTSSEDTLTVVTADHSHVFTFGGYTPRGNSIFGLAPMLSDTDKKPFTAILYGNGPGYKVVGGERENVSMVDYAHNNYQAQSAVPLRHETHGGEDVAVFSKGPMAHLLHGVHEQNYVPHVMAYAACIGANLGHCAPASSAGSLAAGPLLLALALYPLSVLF

[15] = molecular target: Intestinal-type alkaline phosphatase (Mus musculus, UniProt P24822); experiment: PubChem AID 488785; assay type: functional
Chain of Intestinal-type alkaline phosphatase (Mus musculus, UniProt P24822) (P24822 whole entry): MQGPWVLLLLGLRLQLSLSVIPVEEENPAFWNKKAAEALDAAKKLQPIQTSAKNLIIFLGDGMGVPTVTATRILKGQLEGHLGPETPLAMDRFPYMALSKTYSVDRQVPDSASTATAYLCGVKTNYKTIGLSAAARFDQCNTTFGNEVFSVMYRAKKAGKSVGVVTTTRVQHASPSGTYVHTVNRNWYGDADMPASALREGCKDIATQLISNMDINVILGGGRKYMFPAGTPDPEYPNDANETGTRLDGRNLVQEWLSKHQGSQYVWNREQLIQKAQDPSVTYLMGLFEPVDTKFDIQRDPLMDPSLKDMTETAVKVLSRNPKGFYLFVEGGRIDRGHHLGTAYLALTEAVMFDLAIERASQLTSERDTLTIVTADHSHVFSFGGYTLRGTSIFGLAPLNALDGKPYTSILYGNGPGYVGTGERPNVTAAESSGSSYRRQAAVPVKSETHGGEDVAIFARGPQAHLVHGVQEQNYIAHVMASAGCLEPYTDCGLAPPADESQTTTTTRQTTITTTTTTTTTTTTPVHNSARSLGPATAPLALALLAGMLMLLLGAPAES

[16] = molecular target: Intestinal-type alkaline phosphatase (Homo sapiens, UniProt P09923); experiment: inhibition of human intestinal alkaline phosphatase – biochemical, dose response (AID 488876); assay type: functional
Chain of Intestinal-type alkaline phosphatase (Homo sapiens, UniProt P09923) (P09923 whole entry): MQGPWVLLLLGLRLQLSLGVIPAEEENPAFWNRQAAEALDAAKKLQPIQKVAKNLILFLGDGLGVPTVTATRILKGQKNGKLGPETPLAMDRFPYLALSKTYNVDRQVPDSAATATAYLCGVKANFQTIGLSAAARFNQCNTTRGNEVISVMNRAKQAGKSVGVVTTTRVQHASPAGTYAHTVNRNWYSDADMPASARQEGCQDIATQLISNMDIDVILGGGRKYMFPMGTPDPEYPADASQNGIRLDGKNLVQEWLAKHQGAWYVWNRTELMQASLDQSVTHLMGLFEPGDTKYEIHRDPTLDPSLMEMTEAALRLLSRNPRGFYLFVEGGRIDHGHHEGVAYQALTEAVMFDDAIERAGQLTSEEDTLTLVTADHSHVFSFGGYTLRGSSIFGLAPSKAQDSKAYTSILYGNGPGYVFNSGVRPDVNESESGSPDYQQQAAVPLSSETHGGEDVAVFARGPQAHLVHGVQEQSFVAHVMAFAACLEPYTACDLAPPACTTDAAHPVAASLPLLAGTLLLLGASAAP

[17] = THP-1 cell cytotoxicity, dose response, cytotoxicity control for Vif-APOBEC3G degradation inhibitor project, THP-1 cells (AID 1117359); assay type: functional; settings: Human immunodeficiency virus 1, THP-1
cells [18] = assay type: functional, cell-based; remark: listed apart in the source

With `COc1ccc(NS(=O)(=O)c2ccc(NC(C)=O)cc2)cc1OC` the IC50 [1] was 3.44 µM (active), the IC50 [2] was 2.22 µM (active) and the IC50 (Protein Wnt-3a) was 12 µM (active).

In the case of `O=C(CSc1[nH]cnc2ncnc1-2)c1ccc(Cl)cc1`, the AC50 [3] is reported as 2.81 µM (active), the IC50 [4] is reported as 61.1 µM (inactive) and the IC50 (Exodeoxyribonuclease V) is reported as > 119 µM (inactive). For the same compound, the CC50 [5] was > 40 µM (active).

In the case of `CS(=O)(=O)N(CC(=O)NCc1ccco1)c1ccccc1Cl`, the AC50 [6] is reported as 18.4 µM (active).

In the case of `Cc1ccc(OCCC(=O)NCCc2ccc(S(N)(=O)=O)cc2)cc1`, the IC50 [7] is reported as > 32 µM (inactive).

For `CC(C)Cc1nnc(NC(=O)COc2ccc(F)cc2Cl)o1`, the EC50 [8] was 10 µM (active).

For `O=[N+]([O-])c1ccccc1NC(=S)N/N=C/c1ccc(O)c(O)c1`, the EC50 (cells [9]) was > 29.9 µM (inactive), the IC50 [10] was 7.2 µM (active) and the CC50 [11] was 11.7 µM (active). The AC50 [12] was 1.34 µM (active), the EC50 [13] was 4.15 µM (active) and the CC50 (Vero) was 22.8 µM (active). The AC50 (Caspase-6) was 1.56 µM (active), the IC50 [14] was 1.53 µM (active) and the IC50 [15] was 0.216 µM (active). For the same compound, the IC50 [16] was > 100 µM (inactive), the CC50 [17] was 25.5 µM (active) and the IC50 (cells [18]) was 23.5 µM (inactive).
